Measured values reported in ChEMBL document CHEMBL1201862, “PubChem BioAssay data set” (2004).
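Five concentrations, 48 hours, 96-well plates. The concentration for 50% growth inhibition is given as GI50.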 Active and inactive are the calls of the source. Rule as the data show it: active = GI50 up to about 1.1 µM and inactive = higher.

How the values were obtained:
Test in all cases: inhibition of tumour cell growth, NCI panel, 48 h
OVCAR-5 = tested on: OVCAR-5
SK-OV-3 = tested on: SK-OV-3
BT-549 = tested on: BT-549
UACC-257 = tested on: UACC-257
786-0 = tested on: 786-0
SF-295 = tested on: SF-295
HOP-62 = tested on: HOP-62
UO-31 = tested on: UO-31
UACC-62 = tested on: UACC-62
U-251 = tested on: U-251
NCI-H23 = tested on: NCI-H23
ACHN = tested on: ACHN
MDA-MB-435 = tested on: MDA-MB-435
MDA-N = tested on: MDA-N
NCI-H460 = tested on: NCI-H460
MOLT-4 = tested on: MOLT-4
COLO 205 = tested on: COLO 205
SK-MEL-5 = tested on: SK-MEL-5
SF-539 = tested on: SF-539
NCI-H226 = tested on: NCI-H226

SMILES	GI50 (OVCAR-5)	GI50 (SK-OV-3)	GI50 (BT-549)	GI50 (UACC-257)	GI50 (786-0)	GI50 (SF-295)	GI50 (HOP-62)	GI50 (UO-31)	GI50 (UACC-62)	GI50 (U-251)	GI50 (NCI-H23)	GI50 (ACHN)	GI50 (MDA-MB-435)	GI50 (MDA-N)	GI50 (NCI-H460)	GI50 (MOLT-4)	GI50 (COLO 205)	GI50 (SK-MEL-5)	GI50 (SF-539)	GI50 (NCI-H226)
O=C(O)CSc1ccc([N+](=O)[O-])cc1[N+](=O)[O-]	> 100 µM (inactive)	> 100 µM (inactive)	> 100 µM (inactive)	> 100 µM (inactive)	> 100 µM (inactive)	> 100 µM (inactive)	> 100 µM (inactive)	> 100 µM (inactive)	> 100 µM (inactive)	> 100 µM (inactive)	> 100 µM (inactive)	> 100 µM (inactive)	> 100 µM (inactive)	> 100 µM (inactive)	> 100 µM (inactive)					
COC(=O)C1=C(C(=O)OC)SC2(S1)C1=C(CCCC1)SC(C(=O)OC)=C2C(=O)OC	12.6 µM (inactive)	14.9 µM (inactive)	11.7 µM (inactive)	13.1 µM (inactive)		14.6 µM (inactive)	5.62 µM (inactive)	4.58 µM (inactive)	12.7 µM (inactive)	6.67 µM (inactive)	15.8 µM (inactive)	6.05 µM (inactive)	2.81 µM (inactive)	3.9 µM (inactive)	3.84 µM (inactive)	1.93 µM (inactive)	9.25 µM (inactive)	10.1 µM (inactive)	1.51 µM (inactive)	
COc1ccc(OC)c(C23CCCC(C2)N(C)CC3)c1 (centres undefined)	40 µM (inactive)		30.8 µM (inactive)	36.6 µM (inactive)	25.3 µM (inactive)	38.5 µM (inactive)		28.6 µM (inactive)	20.9 µM (inactive)	11.7 µM (inactive)	32.1 µM (inactive)	26.9 µM (inactive)	20.1 µM (inactive)	27.4 µM (inactive)	19.2 µM (inactive)	32.1 µM (inactive)				
O=c1c2c3c(sc2nc2n1NC=NN2)CCCC3	18.2 µM (inactive)	42.8 µM (inactive)	17.5 µM (inactive)	19.9 µM (inactive)	17.6 µM (inactive)	15.8 µM (inactive)		> 44.7 µM (inactive)	17.6 µM (inactive)	16 µM (inactive)	26.2 µM (inactive)	16.7 µM (inactive)	12.8 µM (inactive)	16 µM (inactive)	20.2 µM (inactive)	0.323 µM (active)	25.4 µM (inactive)	16.4 µM (inactive)	17.4 µM (inactive)	17.3 µM (inactive)
CC1(C)C=[N+]([O-])C(C)(C)N1O	> 10 µM (inactive)		> 10 µM (inactive)	> 10 µM (inactive)	> 10 µM (inactive)	> 10 µM (inactive)	> 10 µM (inactive)	> 10 µM (inactive)		> 10 µM (inactive)	> 10 µM (inactive)	> 10 µM (inactive)	> 10 µM (inactive)	> 10 µM (inactive)	> 10 µM (inactive)	> 10 µM (inactive)	> 10 µM (inactive)			> 10 µM (inactive)
NCCNc1ccc(NCCN)c2c1C(=O)c1c(O)ccc(O)c1C2=O	0.971 µM (active)	0.0266 µM (active)	0.653 µM (active)	1.06 µM (active)	0.00459 µM (active)	0.00445 µM (active)		0.0391 µM (active)	0.0108 µM (active)		0.00728 µM (active)	0.00542 µM (active)	1.15 µM (inactive)	1.13 µM (inactive)	< 0.001 µM (active)	< 0.001 µM (active)	1.08 µM (active)	0.129 µM (active)	0.0219 µM (active)	0.0018 µM (active)
O=CC1OC(=O)c2cc(O)c(O)c(O)c2-c2c(cc(O)c(O)c2O)C(=O)OC1C(O)C(O)CO (centres undefined)	> 100 µM (inactive)		51.4 µM (inactive)	82 µM (inactive)	> 100 µM (inactive)	27.9 µM (inactive)	63.2 µM (inactive)	> 100 µM (inactive)		17.9 µM (inactive)	> 100 µM (inactive)	43.6 µM (inactive)	18.3 µM (inactive)	18.7 µM (inactive)	28.8 µM (inactive)	22.9 µM (inactive)	45.5 µM (inactive)	51.6 µM (inactive)	> 100 µM (inactive)	> 100 µM (inactive)
O=C(O)c1cc([N+](=O)[O-])cc2c(=O)c3cnccc3[nH]c12	> 100 µM (inactive)	> 100 µM (inactive)	> 100 µM (inactive)			> 100 µM (inactive)	> 100 µM (inactive)	> 100 µM (inactive)	65.2 µM (inactive)	> 100 µM (inactive)	> 100 µM (inactive)		> 100 µM (inactive)	> 100 µM (inactive)	> 100 µM (inactive)	54.8 µM (inactive)	> 100 µM (inactive)	> 100 µM (inactive)		> 100 µM (inactive)
